Measured values taken from PubChem BioAssay AID1745844 (Carcinogenic Potency Database (CPDB), 2022).

Test system: rodent lifetime carcinogenesis bioassay, tumor incidence TD50
Assay: chronic cancer bioassays in animals – CPDB, compiled studies (AID 1745844)
Conditions: in feed

O=C(O)C=Cc1ccc(O)c(O)c1
TD50 (mouse, strain B6C3F1, females, site: any site (literature study), lesion: one or several types, types not named, dosed 96 weeks, study length 96 weeks): 1900 mg/kg/day
TD50 (mouse, strain B6C3F1, females, site: forestomach, lesion: squamous-cell carcinoma, dosed 96 weeks, study length 96 weeks): 43300 mg/kg/day
TD50 (mouse, strain B6C3F1, females, site: kidney, lesion: tubular-cell adenoma, dosed 96 weeks, study length 96 weeks): 4700 mg/kg/day
TD50 (mouse, strain B6C3F1, males, site: any site (literature study), lesion: one or several types, types not named, dosed 96 weeks, study length 96 weeks): 3210 mg/kg/day
TD50 (mouse, strain B6C3F1, males, site: forestomach, lesion: papilloma, dosed 96 weeks, study length 96 weeks): 9790 mg/kg/day
TD50 (mouse, strain B6C3F1, males, site: forestomach, lesion: several types, types named in the paper, dosed 96 weeks, study length 96 weeks): 5270 mg/kg/day
TD50 (mouse, strain B6C3F1, males, site: forestomach, lesion: squamous-cell carcinoma, dosed 96 weeks, study length 96 weeks): 13300 mg/kg/day
TD50 (mouse, strain B6C3F1, males, site: lung, lesion: alveolar-cell adenoma, dosed 96 weeks, study length 96 weeks): 6110 mg/kg/day
TD50 (mouse, strain B6C3F1, males, site: lung, lesion: alveolar-cell carcinoma, dosed 96 weeks, study length 96 weeks): 41300 mg/kg/day
TD50 (mouse, strain B6C3F1, males, site: lung, lesion: several types, types named in the paper, dosed 96 weeks, study length 96 weeks): 5120 mg/kg/day
TD50 (rat, strain F344/DuCrj, females, site: any site (literature study), lesion: one or several types, types not named, dosed 104 weeks, study length 104 weeks): 312 mg/kg/day
TD50 (rat, strain F344/DuCrj, females, site: forestomach, lesion: papilloma, dosed 104 weeks, study length 104 weeks): 426 mg/kg/day
TD50 (rat, strain F344/DuCrj, females, site: forestomach, lesion: several types, types named in the paper, dosed 104 weeks, study length 104 weeks): 298 mg/kg/day
TD50 (rat, strain F344/DuCrj, females, site: forestomach, lesion: squamous-cell carcinoma, dosed 104 weeks, study length 104 weeks): 989 mg/kg/day
TD50 (rat, strain F344/DuCrj, males, site: forestomach, lesion: papilloma, dosed 104 weeks, study length 104 weeks): 377 mg/kg/day
TD50 (rat, strain F344/DuCrj, males, site: forestomach, lesion: several types, types named in the paper, dosed 104 weeks, study length 104 weeks): 272 mg/kg/day
TD50 (rat, strain F344/DuCrj, males, site: forestomach, lesion: squamous-cell carcinoma, dosed 104 weeks, study length 104 weeks): 656 mg/kg/day
TD50 (rat, strain F344/DuCrj, males, site: forestomach, lesion: squamous-cell papilloma, dosed 51 weeks, study length 52 weeks): 217 mg/kg/day
TD50 (rat, strain F344/DuCrj, males, site: forestomach, lesion: squamous-cell papilloma, dosed 60 weeks, study length 60 weeks): 542 mg/kg/day
TD50 (rat, strain F344/DuCrj, males, site: kidney, lesion: tubular-cell adenoma, dosed 104 weeks, study length 104 weeks): 3830 mg/kg/day
